In article PMC8745263 (International Journal of Molecular Sciences, 2021):

Experiment: RP-HPLC mobility of peptide before and after H2O2 oxidation (hydrophilicity)
Assay type: physicochemical
Conditions: RP-HPLC/LC-MS, C18 column, H2O/CH3CN with TFA; before and after 3% H2O2 oxidation; Supplementary Figure S1A,B
Description: GDF11[48-64]wt was converted to the variant with oxidized methionines by treatment with 3% H2O2, monitoring the reaction progression by reverse-phase HPLC chromatography (RP-HPLC) and mass spectrometry, using the un-oxidized precursor as control. The occurrence of the peroxide oxidation rendered the peptide more hydrophilic than its unoxidized counterpart, as clearly indicated in Supplementary Figure S1A,B by the shift in the RP-HPLC mobility of GDF11[48-64]ox to shorter retention time (9.97 min) with respect to that of GDF11[48-64]wt (11.41 min).
All protected amino acids, including 7-N-Fmoc-aminocoumarin-4-acetic acid (Fmoc-ACA-OH), Fmoc-Met(O)-OH, the coupling agents (1-[Bis(dimethylamino)methylene]-1H-1,2,3-triazol [4,5-b]pyridinium 3-oxid-hexafluorophosphate (Hexafluorophosphate Azabenzotriazole Tetramethyl Uronium, HATU), diisopropylcarbodiimide (DIC), ethyl cyanohydroxyiminoacetate (OXYMA)) and Fmoc-Rink Amide AM Resin used for peptide synthesis were purchased from IRIS Biotech GmbH (Marktrewitz, DE). Acetonitrile (CH3CN), dimethylformamide (DMF), trifluoroacetic acid (TFA), and methanol (CH3OH) were purchased from ROMIL (Dublin, Ireland). […]
Figure S1. Oxidation reaction of GDF11[48-64]wt with hydrogen peroxide monitored by LC-ESI-TOF-MS (LC-MS) analysis. […] After incubation, the samples were collected and analyzed by LC-MS. […]

Row | RP-HPLC retention time (shift to shorter time = more hydrophilic) | Substance
1 | 9.97 min | Ac-EYM(ox)FM(ox)QKYPHTHLVQQA-NH2 [GDF11[48-64] wt ox, GDF11[48-64]wt bearing sulphoxide groups on M50 and M52, by 3% H2O2 treatment]
2 | 11.41 min | Ac-EYMFMQKYPHTHLVQQA-NH2 [GDF11[48-64]wt, peptide reproducing the 48–64 region of GDF11 protein, acetylated and amidated]
